Results from patent publication US11033520B2, “Liposomal anticancer compositions” (IriSys, LLC, priority 2016, dated 2021).

Assays:
[1] = Total doxorubicin content, recovery and encapsulation efficiency of liposomal suspension (HPLC); type: physicochemical; conditions: 50:1 lipid/drug
Method: All HPLC was performed using an Agilent 1260 Infinity system, equipped with a G13110B pump, 01329B autosampler, G1316A column compartment, and a G1315D diode-array detector. OpenLab CDS (EZChrom edition) software controlled all modules and was used for analysis and reporting of chromatography. A Phenomenex Luna C18 column (5μ, 150×4.6 mm; part #00G-4252-E0) was used for all analyses.
Chromatographic analysis of doxorubicin (DOX) was performed on the Agilent 1260 Infinity system using a C18 column (see above) with a column temperature of 40° C. and sample temperature at ambient conditions (˜25° C.). All mobile phase reagents were filtered with a 0.45 μm filter membrane prior to use. HPLC grade acetonitrile was from EMD Millipore. […] Mobile phase flow rate was set to 1.0 mL/min with a run time of 15 minutes. The diode array detector was operated at 487 nm with a bandwidth of 4 nm. Injection volume was set to 10 μL.
Standard stock solution of doxorubicin was prepared in a 0.9% saline, or methanol, or water solution (1 mg/mL). Calibration standards were prepared by diluting the stock solution in anhydrous methanol to bracket the target concentration for analysis. For this study, the doxorubicin solution was diluted with anhydrous methanol or IPA to the final concentration 50 μg/mL, 100 μg/mL and 200 μg/mL; respectively. Samples of liposomal suspension were also diluted with anhydrous methanol or IPA by a factor of 8 or 10 times prior to analysis.
Determination of doxorubicin in liposomal suspension. Followed doxorubicin loading liposomal suspension was subjected to 5× TFF to majorly remove free (not encapsulated) doxorubicin. To determine total doxorubicin concentration at TO (within one week of MFD) TFF washed liposomes were diluted with methanol or IPA and subjected to HPLC analysis. Doxorubicin content, percent of recovery (doxorubicin content in liposomal suspension relative to doxorubicin free base concentration used for remote loading), and encapsulation efficiency (%) are presented in the Table 9. Encapsulation efficiency (%) represents the difference between doxorubicin recovery (%) and free doxorubicin (%).

[2] = counter ion; cited from earlier work
[3] = tested on: nucleus; conditions: within 8 h after administration; cited from earlier work
[4] = tested on: Hela cells; test: cells; type: cell-based; conditions: Homo sapiens, read-out: Hela, CC50, μM
Method: (§1) Hela cells (HeLa (ATCC CCL-2). Cells were plated in 96 well plates at the density 25K cells per well. Doxorubicin hydrochloride, Doxil®, or doxorubicin oxalate liposomes were appropriately diluted in Growth medium (DMEM, 5% FBS, 1% antibiotic, 1% HEPES) and added to the cells. After 1 hr of incubation at 37° C. plates were centrifuged, supernatant was removed via aspiration, 100 μL of fresh media were added into each well, and cells were cultured for 48 hrs.
(§2) On the day, 3 to assess cell viability, Alamar Blue solution was prepared in Growth medium (RPMI-1640, 10% FBS) at 1:250 dilution and added directly into cell media. After 6 hrs of incubation at 37° C. the resulting fluorescence was read on a plate reader. The fluorescence of cells that have not received any drug treatment was defined as maximum viability. The fluorescence of cell free media was defined as complete cell death. Data analysis was performed by using Prism nonlinear regression software (GraphPad Software) for the curve-fitting and determination of IC50 values.

[5] = tested on: Daudi cells; test: In vitro cell-based cytotoxicity assay (Alamar Blue), Daudi cells; conditions: Homo sapiens, 1 hr exposure, 48 hrs culture
Method: as §1, with “Daudi” for “Hela”, “(ATCC, CCL-213).” for “(HeLa (ATCC CCL-2).”, “100K” for “25K”, “(RPMI-1640, 10% FBS)” for “(DMEM, 5% FBS, 1% antibiotic, 1% HEPES)”
as §2

[6] = tested on: Human B lymphoma cell line Ramos (RA 1); test: In vivo study: B lymphoma model in SCID Beige mice; conditions: 3 mg doxorubicin/kg iv x3
Method: On the same day prior to administration into animals cell were counted, centrifuged at 12000 rpm, washed with sterile PBS, centrifuged again at 1200 rpm, resuspended in sterile PBS to the final cell count 35×10-per mL. Suspension of cells was administered into animals intravenously via single bolus injection to deliver 5×10^6 cells per mouse.
Four weeks old immune deficient SCID Beige, (Line—CB17.Cg-Prkdc^scidLyst^bg-J/Crl) mice were maintained on Chow diet. At the age of 8 weeks mice were subdivided in 3 groups. On the day 1, 5×10^6 B lymphoma cells were intravenously injected into each mouse (FIG. 2). […] On the day 2 and 3 all treatments were repeated (FIG. 2). Animals were monitored daily and weighed twice a week.
Treatment articles were administered intravenously in 120 μL via single bolus injection to deliver 60 μg of doxorubicin per mouse or ˜3 mg/kg dose.

Row | SMILES | doxorubicin loading into liposomes with this counter ion (in words) ([1]; remote loading at 70° C.) | also measured
1 | CC(=O)O [Acetate] | no doxorubicin loading was observed | –
2 | O=C1O[C@H]([C@@H](O)CO)C(O)=C1O [Ascorbate] | no doxorubicin loading was observed | –
3 | N[C@@H](CS)C(=O)O [Cysteinate] | no doxorubicin loading was observed | pKa 1 [2]: 1.96; pKa 2 [2]: 8.18
4 | COc1cccc2c1C(=O)c1c(O)c3c(c(O)c1C2=O)C[C@@](O)(C(=O)CO)C[C@@H]3O[C@H]1C[C@H](N)[C@H](O)[C@H](C)O1.Cl [Doxorubicin Hydrochloride, Doxorubicin hydrochloride] | – | drug translocated to / entered the nucleus [3]: 26%; CC50 [4]: 7 µM; CC50 [5]: 400 nM; survival compared to Placebo (in words) [6]: survivors demonstrated longest MST; death rate ([6]; day 13): 50%
5 | O=CO [Formate] | no doxorubicin loading was observed | –
6 | O=C(O)/C=C/C(=O)O [Fumarate] | no doxorubicin loading was observed | –
7 | O=C(O)/C=C\C(=O)O [Maleate] | no doxorubicin loading was observed | –
8 | O=C(O)CC(=O)O [Malonate] | no doxorubicin loading was observed | –
9 | CC(=O)N[C@@H](CS)C(=O)O [N-Acetyl- L-cysteine] | no doxorubicin loading was observed | doxorubicin loading into liposomes with this counter ion (in words) ([1]; cold loading at room temperature): no doxorubicin loading was observed; pKa 1 [2]: 3.82
10 | O=C(O)c1ccccn1 [Picolinate] | no doxorubicin loading was observed | –
11 | O=C(O)CCC(=O)O [Succinate] | no doxorubicin loading was observed | –
